Source: US20150056195A1, “COMPOSITIONS AND METHODS FOR INIHIBITING TUMORIGENICITY OF SENESCENT CANCER CELLS INDUCED BY CHEMOTHERAPY” (INSERM (INSTITUT NATIONAL DE LA SANTE ET DE LA RECHERCHE …, priority 2013, published 2015)

Columns and labels:
[1] = test system: melanoma cell lines; test: Western blot of MITF, ECAD, FN1, NANOG, OCT4; format: cell-based, human; settings: three melanoma cell lines exposed 48 hrs to secretome of cells rendered senescent by the drug (temozolomide 900 nM, fotemustine 40 nM)
Experimental: (§1) Western blots were carried out as previously described^48. Briefly, cell lysates (30 μg) were separated by SDS-PAGE, transferred on to a PVDF membrane and then exposed to the appropriate primary and HRP-linked secondary antibodies. Proteins were visualized with the ECL system (Amersham). The western blots shown are representative of at least 3 independent experiments.

[2] = test system: melanoma cell lines; test: Cell counting and cell death; format: cell-based, human; settings: 501mel and other melanoma cells
[3] = test system: STAT3; test: Western blot of STAT3, ERK and AKT signaling; format: cell-based, human; settings: 501mel; for AKT and ERK phosphorylation / STAT3 activation (tyr705-phosphorylation): IL6 20 ng/ml or CCL2 200 ng/ml; for STAT3 activation (tyr705-phosphorylation): time course
Experimental: as §1

[4] = test system: 501mel melanoma cells; test: Xenograft tumor model in athymic nude mice; format: in vivo; settings: cells exposed in vitro 48 hrs or transfected, then 4x10^6 cells/mouse subcutaneously
Experimental: Mice were randomly divided into 3 groups of 6 mice. 501mel melanoma cells were transfected with control (siC) or STAT3 (siSTAT3) siRNA and were exposed in vitro to the secretome of senescent melanoma cells (SSMC) or to recombinant CCL2 (200 ng/ml) or IL6 (20 ng/ml) for 48 hrs, washed twice with phosphate-buffered saline and then inoculated subcutaneously (4×10^6 cells/mouse) into 6-week-old female immune-deficient Athymic Nude FOXN1^nu mice (Harlan Laboratory). The growth tumor curves were determined by measuring the tumor volume using the equation V=(L×W2)/2. Mice were killed by CO2 inhalation and tumors were taken.

[5] = test system: 501mel cells; test: CFSE labeling, number of cell divisions by FACS; format: cell-based, human; settings: IL6 20 ng/ml, 72 hrs; control 5.65
Experimental: For the in vitro CFSE assay, cells were labeled with 2 μmol/l of CFSE according to the manufacturer's protocol (Invitrogen), then plated and treated with the secretome of control (SCMC) or senescent melanoma cells (SSMC) or recombinant IL6 (20 ng/ml). Cells were detached and analyzed by flow cytometry using MACSQuant (Miltenyi biotech). Cells were exposed to control (Cont) or senescent secretome (SSMC). Seventy-two hours later, cells were detached in phosphate-buffered saline/EDTA 2 mM and stained with DAPI to exclude dead cells. Fluorescence was measured by using the FL1/FL2 channels of a MACSQuant. Data were analyzed with MACSQuant software (Miltenyi biotech).

[6] = test system: 501mel cells; test: Flow cytometry of MITF content (low-MITF population); format: cell-based, human; settings: IL6 20 ng/ml, 48 hrs; control 2
[7] = test system: 501mel melanoma cells; test: qRT-PCR of mesenchymal, stemness and MITF transcripts; format: cell-based, human; settings: IL6 20 ng/ml, mRNA and protein levels
Experimental: mRNA isolation was performed with Trizol (Invitrogen), according to standard procedure. QRT-PCR was carried out with SYBR® Green I and Multiscribe Reverse Transcriptase (Promega) and monitored by an ABI Prism 7900 Sequence Detection System (Applied Biosystems, Foster City, Calif.). Detection of SB34 gene was used to normalize the results. Primer sequences for each cDNA were designed using either Primer Express Software (Applied Biosystems) or qPrimer depot (http://primerdepot.nci.nih.gov) and are available upon request.

CCOP(=O)(OCC)C(C)NC(=O)N(CCCl)N=O (stereo not drawn) [fotemustine]
E-Cadherin and MITF protein level [1]: decrease
expression of Fibronectin1 [1]: increased expression

CN[C@@H]1C[C@H]2O[C@@](C)([C@@H]1OC)n1c3ccccc3c3c4c(c5c6ccccc6n2c5c31)C(=O)NC4 [staurosporine]
cell death [2]: positive control

IL6: recombinant human IL6 from R&D Systems, used at 20 ng/ml
time to rapid and robust STAT3 phosphorylation ([3]; IL6 20 ng/ml): ≤ 5 min
AKT and ERK phosphorylation [3]: no or very weak stimulation
STAT3 activation (tyr705-phosphorylation) [3]: dramatic increase
tumor formation of xenografted 501mel cells [4]: gave rise to tumors
percentage of cells that underwent 0/1 division [5]: 18.3%
low-MITF population [6]: 7%
NANOG and OCT4 expression [7]: enhanced
amount of MITF [7]: reduced

CCL2: recombinant human CCL2 from R&D Systems, used at 200 ng/ml
time of maximum STAT3 phosphorylation ([3]; CCL2 200 ng/ml): 60 min
AKT and ERK phosphorylation [3]: no or very weak stimulation
STAT3 activation (tyr705-phosphorylation) [3]: dramatic increase
tumor formation of xenografted 501mel cells [4]: gave rise to tumors
